{
  "source": "patent US20170202802A1",
  "about": "“COMPOSITIONS, KITS AND METHODS FOR NUTRITION SUPPLEMENTATION” (Exeltis USA, Inc., priority 2016, published 2017)",
  "test": "Double-blind, placebo controlled six-month study of nutritional status in pregnant and lactating women (Example 6)",
  "format": "in vivo, human",
  "conditions": "co-administration of docusate sodium with supplements",
  "protocol": "A study is undertaken to evaluate the effectiveness of the compositions of the present invention in the treatment of patients. The objective of the study is to determine whether oral intake of the compositions results in an improvement of the nutritional status of patients with regard to the specific vitamins and minerals contained in the administered compositions.\nA double-blind, placebo controlled study is conducted over a six-month period. A total of 120 subjects (60 pregnant women entering the second trimester of pregnancy and 60 lactating women), aged 20-35 years, are chosen for the study. An initial assessment of the nutritional status of each woman is conducted. Vitamin A and vitamin B6 are measured using high performance liquid chromatography. […] Vitamin B2 levels are determined by assessment of erythrocyte glutathione reductase activity. Vitamin B3 levels are assessed by measuring urinary excretion of N′-methylnicotinamide and its pyridone. Vitamin B9 is measured by radioimmunoassay (RIA), specifically. […] Vitamin B12 is measured by RIA using human intrinsic factor as a binder and also by measuring serum levels of vitamin B12. Vitamin C levels are measured by spectrophotometric and colorimetric methods and also by measuring serum levels of Vitamin C. Vitamin D is measured using an extraction double-antibody RIA (Dia Sorin, Inc., Stillwater, Minn.). […] Iodine levels are measured by HPLC. […]",
  "data": [
    {"compound": "CCCCC(CC)COC(=O)CC(C(=O)OCC(CC)CCCC)S(=O)(=O)[O-].[Na+]", "note": "(stereo not shown) [docusate sodium]", "values": [
      {"measurement": "constipation that can result from iron supplementation (frequency of normal bowel movements before and after receiving supplements)", "result": "mitigates constipation"}
    ]}
  ]
}
